In article PMC6207684, “Structural reorganization of SHP2 by oncogenic mutations and implications for oncoprotein resistance to allosteric inhibition” (Nature Communications, 2018):

Assays:
wild-type U2OS cells = test: Western blot pErk quantification; format: cell-based
Experimental: (§1) Lysis was visually confirmed with light microscopy, and lysates were added to gel loading buffer and run on Novex^TM wedgewell^TM 12% Tris-Glycine gels (Invitrogen XP00122) at 180 V for 1 h. Proteins were transferred from gels to polyvinylidene difluoride membranes using an iBlot 2 Dry Blotting System (Thermo Fisher IB21001). After transfer, membranes were blocked with either 5% bovine serum albumin or 5% nonfat milk in tris-buffered saline with tween (TBST) at room temperature for 1 h and then incubated with primary antibody (CST 9101 pErk at 1:500 dilution, CST 9102 Erk at 1:500 dilution, CST 3752 SHP2 at 1:300 dilution, or Sigma A1978 β-Actin at 1:3000 dilution) in respective blocking solution overnight at 4 °C, washed 3 × with TBST for 5 min, incubated with secondary antibody (ECL^TM Anti-Rabbit GE NA934V or Anti-Mouse GE NXA931V at 1:10,000 dilution) in respective blocking solution for 1 h at room temperature, and washed 3 x with TBST for 5 min. Following final wash, membranes were imaged on a GE Amersham Imager 600 using SuperSignal® West Pico Chemiluminescent Substrate (Pierce 34080). Linear brightness and contrast adjustments were applied uniformly across the entire image, and band densities were quantified using Fiji[24]. Western blot images are representative of at least two replicates, which were performed on different days.

PTPN11-null U2OS cells = test: Western blot pErk quantification; format: cell-based; details: 2 h treatment
Source text: (§2) PTPN11−/−/− U2OS cells were generated using the methodology described by Zhang et al.[25]. In brief, CRISPR guides against the first three exons of the PTPN11 proto-oncogene were designed using the Sanger CRISPR database, cloned into the pSpCas9(BB)-2A-GFP vector, transfected into U2OS (ATCC® HTB-96^TM) cells using manufacturer-recommended Fugene®HD methodologies, and assayed for knockdown of SHP2 protein levels, via western blot, in bulk.
Lysis was visually confirmed with light microscopy, and lysates were added to gel loading buffer and run on Novex^TM wedgewell^TM 12% Tris-Glycine gels (Invitrogen XP00122) at 180 V for 1 h. Proteins were transferred from gels to polyvinylidene difluoride membranes using an iBlot 2 Dry Blotting System (Thermo Fisher IB21001). […] Linear brightness and contrast adjustments were applied uniformly across the entire image, and band densities were quantified using Fiji[24]. […]

[1] = system: PTPN11-null U2OS cells expressing SHP2^D61V; test: Western blot pErk quantification; format: cell-based; details: SHP2^D61V in PTPN11-null U2OS cells (other cancer mutants investigated)
Source text: as §2
(§3) Mammalian SHP2 expression plasmids were designed from pCMV-SHP2 WT, which was provided as a gift from Ben Neel (Addgene plasmid #8381), using site-directed mutagenesis (QuikChange, Agilent; see Supplementary Table 4 for the sequences of all primers used in this study). Mutation acquisition and plasmid identity were confirmed via DNA sequencing.
as §1

[2] = system: PTPN11-null U2OS cells expressing SHP2^E76K; test: Western blot pErk quantification; format: cell-based; details: SHP2^E76K in PTPN11-null U2OS cells (other cancer mutants investigated)
Source text: as §2, §3, §1

[3] = system: PTPN11-null U2OS cells expressing SHP2^F285S; test: Western blot pErk quantification; format: cell-based; details: read-out: IC50 for pErk reduction by SHP099; PTPN11-null U2OS cells harboring SHP2^F285S; 2 h treatment
Source text: as §2, §3, §1

[4] = system: PTPN11-null U2OS cells expressing SHP2^G60V; test: Western blot pErk quantification; format: cell-based; details: SHP2^G60V in PTPN11-null U2OS cells (other cancer mutants investigated)
Source text: as §2, §3, §1

[5] = system: PTPN11-null U2OS cells expressing SHP2^S502P; test: Western blot pErk quantification; format: cell-based; details: SHP2^S502P in PTPN11-null U2OS cells; 50 μM SHP099
Source text: as §2, §3, §1

[6] = system: PTPN11-null U2OS cells re-expressing SHP2^WT; test: Western blot pErk quantification; format: cell-based
Source text: as §2, §3, §1

U2OS cells = test: pERK induction by EGF stimulation in serum-starved U2OS cells, western blot; format: cell-based; details: U2OS serum starved 48 hours; SHP099 10 µM for 2 hours; EGF 5 nM; lysed 10 min after stimulation
Experimental: or vehicle cont rol f or 2 hours, and t hen st imulat ed wit h EGF. Cells were lysed on ice 10 min
af t er st imulat ion, and pErklevels were analyzed by western blot. […]

wild-type SHP2 = system: wild-type SHP2; set-up: method as in PMID 27362227; details: biochemical assays; cited from earlier work
[7] = system: cancer cell lines that are dependent on receptor tyrosine kinases and wild-type SHP2; set-up: method as in PMID 27362227; details: cited from earlier work

CC1(N)CCN(c2cnc(-c3cccc(Cl)c3Cl)c(N)n2)CC1 [SHP099]
pErk levels upon SHP099 treatment (western blot) (wild-type U2OS cells; 2 h treatment): dramatically reduces pErk levels
IC50 (wild-type U2OS cells; read-out: IC50 for pErk reduction by SHP099, 2 h treatment, western blot densitometry): 2 ± 1 µM
pErk levels upon SHP099 treatment (western blot) (PTPN11-null U2OS cells): unaffected
inhibition of Erk phosphorylation [1]: does not significantly inhibit Erk phosphorylation
inhibition of Erk phosphorylation [2]: does not significantly inhibit Erk phosphorylation
IC50 [3]: 8 ± 2 µM
inhibition of Erk phosphorylation [4]: does not significantly inhibit Erk phosphorylation
loss of pErk [5]: little, if any, loss of pErk
reduction of pErk levels by SHP099 (incomplete, maximal) ([6]; SHP2^WT-rescued PTPN11-null U2OS cells): ~ 65%
IC50 ([6]; read-out: IC50 for pErk reduction by SHP099, PTPN11-null cells re-expressing SHP2^WT, 2 h treatment, western blot densitometry): 4 ± 2 µM
pERK induction in response to EGF stimulation (U2OS cells): attenuated
affinity for wild-type SHP2 (wild-type SHP2): nanomolar affinity
antiproliferative activity [7]: antiproliferative activity
